These results are taken from article PMC8564633, “SMAC/Diablo controls proliferation of cancer cells by regulating phosphatidylethanolamine synthesis” (Molecular Oncology, 2021).

Non-standard residues stand in square brackets, D forms with d. No end group written: not given here. Dmt = Cc1cc(O)cc(C)c1C[C@H](N)C(=O)O; Orn = NCCC[C@H](N)C(=O)O

Data set [1] can be described thus: Cell death induced by the PE probe. In kind it is cell-based. As to conditions: data not shown.
Data set [2] relates to purified SMAC. Put plainly: Glass‐bound peptide array blotted with SMAC with or without PSD. The format is binding, human. Conditions: SMAC preincubated with purified PSD, anti‐SMAC antibodies. As for the experimental part:
Customized 768‐peptide sequences derived from 11 SMAC‐interacting proteins produced by INTAVIS Peptide Services (GmbH & Co. KG, Tübingen, Germany) were arrayed on a glass slide. Peptide arrays were blotted with SMAC, PSD or peptides interacting with PSD using anti‐SMAC or anti‐PSD antibodies. The interaction of purified SMAC or PSD with glass‐bound peptide arrays was assessed by slide washing (three times, 10 min each) with Tris‐buffered saline (150 mM NaCl, 50 mM Tris/HCl, pH 7.4), followed by overnight incubation with blocking buffer (Tris‐buffered saline containing low‐fat dry milk, 2.5%, w/v). The slides were then incubated for 4 h or overnight with purified SMAC (0.8 µM) with and without preincubation with PSD (0.3 µM). Similarly, slides were incubated with PSD (0.15 µM) with or without preincubation with the indicated peptide (20 μM) in blocking buffer at room temperature. After extensive slide washing with Tris‐buffered saline containing 0.05% Tween‐20, SMAC or PSD binding was detected using anti‐SMAC or anti‐PSD antibodies and HRP‐conjugated anti‐rabbit or anti‐mouse IgG as a secondary antibody. The blots were developed using EZ‐ECL (Biological Industries), according to the manufacturer’s instructions.
Fig. 6 PSD‐ and SMAC‐interacting partners. (A) Schematic presentation of peptide array and detection of their interaction with SMAC. (B) Glass‐bound peptide array consisting of overlapping peptides derived from 15 SMAC‐interacting proteins were incubated overnight with purified SMAC (0.8 µM) and then blotted with anti‐SMAC antibodies (1 : 1000), followed by incubation with HRP‐conjugated anti‐mouse IgG and detection using a chemiluminescence kit. Dark spots represent binding of SMAC to peptides derived from SMAC‐interacting proteins. (C) SMAC (0.3 µM) was incubated with purified PSD (0.4 µM) and blotted as in (B). The peptide spots where PSD prevented interaction with SMAC (Table S1) are circled. (D) Schematic presentation of peptide array and detection of their interaction with PSD. […]

Data set [3] deals with T1, purified PSD (Homo sapiens, UniProt Q9UG56).
T1 construct: Purified recombinant protein (full length) of human phosphatidylserine decarboxylase (PSD); His tag (N); purchased Acris-OriGene; host or cells: E. coli
T1 sequence (Q9UG56 53-409): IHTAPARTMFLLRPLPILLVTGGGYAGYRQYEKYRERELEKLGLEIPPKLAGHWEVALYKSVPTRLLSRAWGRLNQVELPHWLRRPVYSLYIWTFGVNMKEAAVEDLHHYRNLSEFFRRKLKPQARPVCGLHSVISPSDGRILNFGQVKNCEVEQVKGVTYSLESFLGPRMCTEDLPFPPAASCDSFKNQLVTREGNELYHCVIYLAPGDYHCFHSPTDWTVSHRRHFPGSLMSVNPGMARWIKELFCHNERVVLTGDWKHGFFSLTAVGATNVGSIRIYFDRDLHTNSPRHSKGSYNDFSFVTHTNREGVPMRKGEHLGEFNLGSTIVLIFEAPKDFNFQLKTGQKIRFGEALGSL
Put plainly: MST, labelled PSD with synthetic peptides. As to conditions: labelled PSD 0.25 µM, peptide 1–10 µM, 30 min, 37 °C, n = 3, read-out: Kd, peptide binding to purified PSD.

In data set [4] the test system is A549 cell xenograft. Put plainly: A549 lung cancer xenograft tumour growth. In kind it is in vivo, athymic nude mice. As to conditions: relative to si‐NT‐treated tumours, nude mice, n = 8 mice/group. As for the experimental part:
Male Hsd:Athymic ' Nude‐Foxn1nu mice (6–8 weeks old) were obtained from Envigo and were kept in the university animal facility in temperature‐controlled rooms and provided with water and food pellets ad libitum. All procedures involving mice were approved by the Ben‐Gurion Institutional Animal Care and Use Committee.
Lung cancer A549 (3 × 10 ^6 ) cells were implanted subcutaneously on the dorsal flanks. Tumour growth was recorded using digital calibre, and volumes were calculated using, volume = X^2 × Y/2, where X and Y are the short and long tumour dimensions, respectively. Mice were divided randomly into three groups once the average tumour volume reached ˜ 80 mm^3 and were treated subcutaneously with si‐NT or si‐hSMAC‐A mixed with JetPEI reagent (350 or 700 nM final concentration) three times a week. Mice were sacrificed at the end of experiment, and the tumours were excised and processed for immunohistochemistry (IHC) or frozen in liquid nitrogen for immunoblotting and RNA isolation.
(§1) Results are presented as the mean tumour volume ± SEM. […] Results are the means ± SEM.

For data set [5], the system named is SMAC/Diablo. Put plainly: SMAC expression in treated tumours (immunoblot, IHC). Conditions: si‐hSMAC‐A‐TTs versus si‐NT‐TTs, n = 6 mice/group. The format is in vivo, human. As for the experimental part:
Cells were harvested and washed twice with ice‐cold PBS, and the pellets were lysed on ice for 30 min in a lysis buffer (50 mM Tris/HCl, pH 7.5, 150 mM NaCl, 1 mM EDTA, 1.5 mM MgCl2, 10% glycerol, 1% Triton X‐100), freshly supplemented with a protease inhibitor cocktail (Calbiochem) and centrifuged (10 min, 12 000 g ). The protein concentration of the supernatant was determined, and cells were stored at −80 °C until used for gel electrophoresis and immunoblotting. Protein samples (10–20 μg) were subjected to SDS‐PAGE and immunoblotting, using the selected primary antibodies, followed by incubation with HRP‐conjugated secondary antibodies. HRP activity was determined using EZ‐ECL (Biological Industries). Band intensity was quantified using FUSION‐FX (Vilber Lourmat, Collégien, France).
as §1

Data set [6] concerns A549 cell xenograft. Put plainly: TUNEL staining of treated tumours. In kind it is in vivo, athymic nude mice. As to conditions: si‐hSMAC‐A‐TTs, data not shown.
For data set [7], the system named is phospholipid levels. The experiment in a line: Total PL, PC and PE levels in treated tumours. The format is in vivo. As to conditions: si‐hSMAC‐A‐TTs relative to si‐NT‐TTs, n = 6 mice per group. As for the experimental part:
Total lipids were extracted from the SMAC‐KO and wild‐type A549/HEK 293T cells by the Folch method. Briefly, a cell suspension (2 × 10^7 cells/mL) was made in CHCl3/MeOH (2 : 1, v/v) sonicated for 30 s. Water (116 μL·mL^−1) was added to the suspension and shaken for 2 h at room temperature at 300 r.p.m. The aqueous suspension was heated for 10 min at 60 °C and stored at 4 °C for 3 h. Undissolved material was filtered through a 0.45‐μm syringe filter. Solvent was evaporated under nitrogen, and residues were re‐dissolved in CHCl3/MeOH for lipid analysis.
Total phospholipid content of the cells was determined calorimetrically at 488 nm based on the formation of a complex between the PLs and ammonium ferrothiocyanate. PC level was also determined by calorimetric analysis at 316 nm using ammonium thiocyanatocobaltate reagent, as described previously.
PE content in the lipid samples was measured as described previously. Briefly, solvent was evaporated from the lipid samples under nitrogen gas, and samples were resuspended in 0.8 mM Triton X‐100. Sample aliquots were added to 96‐well plates containing (50 µL) reaction mixture (80 mM NaCl, 2 mM K2HPO4, pH 7.4) and of borate buffer (12.5 µL) (100 mM boric acid, 75 mM NaCl, 25 mM sodium tetraborate, pH 9). After mixing, 12.5 µL of 100 µM DSB‐3, in 10 mM K2HPO4 (pH 7.4), was then added and incubated for 2 h in the dark with shaking (100 r.p.m.). Fluorescence was measured using excitation λex = 403 nm and emission λem = 508 nm. A calibration curve was obtained using PE (Biovision) as a standard.
as §1

Data set [8] deals with VDAC1‐IP3R close association (MAM). The experiment in a line: In‐situ proximity ligation assay VDAC1‐IP3R (MAM) in tumour sections. The format is in vivo. As to conditions: si‐hSMAC‐A‐TTs sections relative to si‐NT‐TTs. As for the experimental part: PLA was conducted as previously described using an in␣situ detection reagent red kit (DuoLink InSitu PLA Probe kit; Sigma‐Aldrich) according to the manufacturer’s protocol. VDAC1‐IP3R and SMAC‐PSD were analysed using PLA [24]. Briefly, for tumour section, formalin‐fixed and paraffin‐embedded tumour sections (5‐μm thick) were deparaffinized and then permeabilized using 0.3% Triton X‐100 in PBS for 30 min, followed by blocking with Duolink® Blocking Solution for 1 h. Sections were incubated overnight with anti‐VDAC1 (rabbit 1 : 750) and anti‐IP3R (mouse, 1 : 750), washed twice with TBS‐Tween (0.01%) and then incubated for 1 h with the secondary anti‐mouse and anti‐rabbit antibodies (PLA probe MINUS and PLUS) that were conjugated to complementary oligonucleotide extensions, and ligation and amplification steps were performed per manufacturer’s instructions, and Texas red‐labelled oligonucleotide probes were detected.
Fig. 3 Subcellular morphological alterations including ER‐mitochondria contact sites, as induced by reduction of SMAC levels. […] (C) and subjected to quantitative analysis (n = 5) (D). […] Images at high magnification (Ea,b) (scale bars represent 20, 5 µm as indicated) and ligation product quantification (F) are also shown.

Data set [9] concerns Ki‐67. Conditions: si‐hSMAC‐A‐TTs versus si‐NT‐TTs, IHC.
Data set [10] has as its system different cell lines. Conditions: ref [35], cited from earlier work. The text has this:
To target the peptide to the nucleus (nuCPP), the peptides were fused to the tetrapeptide RrRK (r = D‐arginine), shown to primarily target the nucleus of HeLa cells.

In data set [11] the target is T2, Purified recombinant protein (full length) of human phosphatidylserine decarboxylase (PSD) (human, UniProt Q9UG56 53-409, fluorescently labelled (in the MST with the peptides 2F3 and 1C11 only)).
T2 construct: phosphatidylserine decarboxylase, human, full length, recombinant; also called PISD; purified PSD; source: bought: Acris‐OriGene, expressed in E. coli, purified; not shown: His tag, N-terminal, kept
T2 sequence (looked up): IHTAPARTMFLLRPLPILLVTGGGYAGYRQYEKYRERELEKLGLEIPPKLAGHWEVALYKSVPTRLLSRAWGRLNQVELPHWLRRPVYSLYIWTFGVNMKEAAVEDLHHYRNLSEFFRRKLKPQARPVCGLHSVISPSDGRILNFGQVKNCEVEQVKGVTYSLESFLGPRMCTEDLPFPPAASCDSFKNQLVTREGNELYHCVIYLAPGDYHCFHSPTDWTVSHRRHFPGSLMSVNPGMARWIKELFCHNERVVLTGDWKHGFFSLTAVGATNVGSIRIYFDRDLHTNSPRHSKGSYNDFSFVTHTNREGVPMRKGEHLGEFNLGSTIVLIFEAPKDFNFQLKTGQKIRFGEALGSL
Put plainly: MST; SMAC fluorescently labelled (NanoTemper BLUE kit), 1 µM, incubated with purified PSD (78–625 nM) for 30 min at 37 °C; 10 mM Tris buffer, pH 7.4; Monolith NT.115, LED 20%, IR laser 20%. Conditions: both partners purified.

On to Distyrylbenzene‐bis‐aldehyde [DSB‐3], for which the cell death entry in [1] is listed as “no cell death”.
Turning to PNQSSRAFQGT DHSSDLAFDFLSQQ [2I8], in [2], the “effect of PSD preincubation on SMAC binding to the peptide spot” value (shortened to “effect of PSD preincubation”) is reported as “prevented SMAC interaction”.
ALSTSSPIPSVPQSQAQPQTGSGAS [2F3]: the Kd in data set [3] worked out at 3 µM.
FQQLTCVLPI LDNLLKANVINKQEH [1E14]: in [2], the “effect of PSD preincubation” value was “prevented SMAC interaction”.
As for DVDKLREQLS TSENALTGRILDLKT [2J14], the “effect of PSD preincubation” value in data set [2] is listed as “prevented SMAC interaction”.
In turn, “si‐hSMAC‐A: Human SMAC/Diablo‐specific siRNA, sense 5′AAGCGGUGUUUCUCAGAATTGtt3′, antisense 5′AACAAUUCUGAGAAACCCG Ctt3′ (sense AAGCGGUGUUUCUCAGAATTGTT; antisense AACAAUUCUGAGAAACCCGCTT; chemistry not given here)” returned a tumour volume reduced in data set [4] (si‐hSMAC‐A 350 nM) of 50%. Besides, in [4] (si‐hSMAC‐A 700 nM), the tumour volume reduced is listed as 85%. In [5], the SMAC/Diablo level decreased was 75%. Moreover, the “cell death, TUNEL staining” value in data set [6] is on record as “No cell death was detected”. In addition, in data set [7] (DSB‐3 probe), the “levels of PE increased” value is on record as 200%. Further, in data set [7], the “levels of PC decreased” value is given as 65% and the “levels of PLs decreased” value was 50%. The “PLA signal VDAC1‐IP3R” value in [8] is listed as “over fourfold”. Moreover, the “expression of Ki‐67, cell proliferation marker” value in [9] is given as “highly reduced”.
As for [dR][Dmt][Orn]F-NH2 [mtCPP‐1], in data set [10] (different cell lines), the toxicity result is reported as “no toxicity”. In addition, in data set [10], the induction of apoptosis result is reported as “did not induce apoptosis”.
Regarding ALLTSGTSDPRARVTYGTPSLWRL [1C11], in data set [3], the Kd amounted to 3 µM.

B1: Human recombinant SMAC (SMAC/Diablo, second mitochondria‐derived activator of caspase/direct inhibitor of apoptosis‐binding protein with low pI) (natural protein)
chain: AVPIAQKSEPHSLSSEALMRRAVSLVTDSTSTFLSQTTYALIEAITEYTKAVYTLTSLYRQYTSLLGKMNSEEEDEVWQVIIGARAEMTSKHQEYLKLETTWMTAVGLSEMAAEAAYQTGADQASITARNHIQLVKLQVEEVHQLSRKAETKLAEAQIEELRQKTQEEGEERAESEQEAYLRED
modifications: fluorescently labelled with the NanoTemper Protein labelling kit BLUE (in the MST with PSD only)
B1: in data set [11], the equilibrium dissociation constant (Kd) is 0.246 µM.
